Values after ≈ are worked out from the molar mass of the structure shown. Where two headings read alike, the source gives them in different places.
Experiments:
red blood cells = experiment: Hemolysis assay; assay type: cell-based, Sheep; details: concentration required to lyse 50% of red blood cells; 37 °C, 1 h
Description: All target derivatives were assessed for their in vitro antibacterial activities using a broth microdilution assay to test their minimum inhibitory concentrations (MICs) against six Gram-positive strains (S. aureus ATCC31007, S. aureus ATCC25923, S. aureus ATCC43300, E. faecalis ATCC29212, B. subtilis ATCC9372, and S. epidermidis ATCC12228) and four Gram-negative strains (A. baumannii ATCC19606, K. pneumonia ATCC10031, E. coli ATCC25922, and P. aeruginosa ATCC27853). These compounds were also evaluated for their hemolytic activities and membrane selectivity by determining their HC50 (the concentration required to lyse 50% of red blood cells) and SI (HC50/MICs) values, respectively, and vancomycin was used as the positive drug.
To further detect the hemolytic toxicity and therapeutic potential of these derivatives, we proceeded to examine the hemolytic activities and membrane selectivity of these derivatives. The HC50 value was defined as the concentration needed for a compound to lyse 50% of red blood cells, and it is often used to evaluate the hemolytic toxicity to eukaryotic cells. […] The selectivity index (SI) was calculated by HC50/MICs of S. aureus ATCC43300 and was used to assess the potency and safety of the compounds. […] Thus, compound 9h was selected as a representative molecule for the in-depth in vitro and in vivo studies.
Sheep blood was used to isolate red blood cells (RBCs), which were then resuspended in 1× PBS (5%). The compounds were dissolved in PBS to give an initial concentration of 5.12 mg/mL, compound solution (100 μL) was added to the first well of a 96-well plate, two-fold serial dilutions of compounds were prepared in 96-well plates, and then 150 μL of 5% RBC suspension was added to each well. This was followed by incubation at 37 °C for 1 h. After incubation, the plate was centrifuged (3500 rpm, 5 min), and 100 μL of supernatant solution from each well was carefully pipetted into a new plate. The absorbance values were measured at 540 nm. Erythrocyte hemolysis rate = (Absorbancecompound – Absorbance negative control)/(Absorbance1% Triton X-100 − Absorbance negative control) × 100%. All biological experiments were repeated three times.

S. aureus ATCC4330 = experiment: microbe, parasite or virus in culture; assay type: cell-based; details: Staphylococcus aureus, read-out: MBC
Description: Due to the presence of various biological enzymes in plasma, natural AMPs are susceptible to enzymatic degradation upon entering the bloods, leading to a loss of their antimicrobial activity. To evaluate the plasma stability of active compound 9h, we conducted a stability assay by determining their MBC (minimum bactericidal concentration) values in plasma and different blood components. […] The observed initial increase in the MBC value, followed by remaining unchanged, could potentially be attributed to the initial binding of compound 9h with plasma proteins, causing a reduction in its activity. Once this binding became saturated, the bactericidal activity of the compound remained stable, further indicating the good stability of compound 9h in plasma.
MBCs of the compounds were tested. Furthermore, MBCs of compounds in 50% plasma, 50% serum, and 50% blood suspension were tested. The MBC value is defined as the concentration at which the colony count is less than 5 after 18 h of incubation at 37 °C. All biological experiments were repeated three times.

[1] = tested on: S. aureus ATCC43300 biofilm formation
Description: (§1) Bacterial biofilms created by the aggregation of bacteria is considered as one of the main reasons for the development of drug resistance. […] Subsequently, we further assessed the efficiency of 9h to eradicate the preformed biofilm. Matured S. aureus biofilm (grown for 24 h) was treated with compound 9h, and the rate of biofilm disruption was then assessed by the crystal violet staining assay.
Biofilm inhibition assay: S. aureus ATCC43300 was cultured (37 °C, 200 rpm) in MHB broth for 5 h and diluted to 1 × 10^6 CFU/mL. […] The planktonic supernatant cells were discarded and washed with PBS three times. Then, methanol (150 µL) was added to each well for 30 min. After discarding methanol, 0.1% crystal violet solution (150 µL) was added, and biofilms were stained for 15 min. Next, crystal violet solution was removed and washed with PBS three times. Finally, ethanol (150 µL) was pipetted into the wells, and the OD values were measured at 575 nm. The biofilm inhibition (%) = (ODcompound − ODblank)/(ODpositive control − ODblank) × 100%.

S. aureus ATCC43300 = experiment: ROS assay (DCFH-DA); assay type: cell-based; details: 16 μg/mL
Description: It is known that the disruption of bacterial cell membranes often causes the production of ROS in bacterial cells. The fluorescent probe DCFH-DA was used to monitor the level of intracellular ROS produced by S. aureus ATCC43300. DCFH-DA is initially non-fluorescent; however, it undergoes hydrolysis to DCFH upon entry into the cell. Subsequently, DCFH is converted to the fluorescent compound DCF when ROS are produced in the cells. […] The fluorescence intensity of 9h was about 8-fold higher than the PBS-treated group when the concentration of 9h increased 16 μg/mL.
Mid-log S. aureus ATCC43300 was collected and resuspended in PBS. Bacteria suspension (1.0 × 10^8 CFU/mL) was placed into a 96-well plate, and an equal volume of DCF-DA (10.0 μM) was mixed and incubated at 37 °C for 30 min. After incubation, the suspension was centrifuged (3500 rpm, 4 min), and the supernatant was removed and resuspended in PBS. […] The fluorescence intensity of each well was recorded by a microplate reader (Ex = 488 nm and Em = 530 nm). All biological experiments were repeated three times.

[2] = tested on: preformed S. aureus ATCC43300 biofilm; experiment: Biofilm disruption assay (crystal violet); assay type: cell-based; details: biofilm grown for 24 h
Description: as §1
Biofilm disruption: Briefly, S. aureus ATCC43300 (1 × 10^6 CFU/mL) was incubated in 96-well plates for 24 h to create biofilms. Next, the planktonic supernatant cells were removed. […] Then, the treated biofilm was determined by crystal violet assay. The OD values were measured at 575 nm. Biofilm disruption (%) = (ODcompound − ODblank)/(ODpositive control − ODblank) × 100%. All biological experiments were repeated three times.

[3] = tested on: Staphylococcus aureus ATCC43300, methicillin-resistant strain; experiment: microbe, parasite or virus in culture; assay type: cell-based; details: ATCC 43300 / MRSA; Staphylococcus aureus ATCC43300 (MRSA); read-out: MIC S. a 43300
Summary of the method: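 Per CLSI standards, compounds are serially diluted twofold in TSB, inoculated with an equal volume of bacteria at 10^6 CFU/mL and incubated 24 h at 37 °C. Vancomycin served as the positive drug; triplicate experiments.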

## CC(=O)c1c(OCCCNCCCN2CCN(C)CC2)c2c(c3c1OC(C)(CCC=C(C)C)C=C3)OC(C)(CCC=C(C)C)C=C2 (stereo not drawn) [Compound 9h, 1-(2,8-Dimethyl-2,8-bis(4-methylpent-3-en-1-yl)-5-(3-((3-(4-methylpiperazin-1-yl)propyl)amino)propoxy)-2H,8H-pyrano [2,3-f]chromen-6-yl)ethan-1-one]
Red blood cells
  HC50: 98.0 µg/mL
S. aureus ATCC4330; ATCC4330, dissolved in Mueller Hinton broth (MHB)
  MBC: 16 µg/mL (≈ 25.2 µM)
S. aureus ATCC4330; ATCC4330, in 50% blood (Figure 3B)
  MBC: 32 µg/mL (≈ 50.5 µM)
S. aureus ATCC4330; ATCC4330, in 50% plasma (Figure 3B)
  MBC: 32 µg/mL (≈ 50.5 µM)
S. aureus ATCC4330; ATCC4330, in 50% serum (Figure 3B)
  MBC: 32 µg/mL (≈ 50.5 µM)
S. aureus ATCC4330; ATCC4330, treatment with 50% plasma, unchanged after 3 and 6 h preincubation (Figure 3A)
  MBC: 32 µg/mL (≈ 50.5 µM)
[1]; 1× MIC (2 μg/mL)
  inhibition of S. aureus biofilm formation: 8.65%
[1]; 2× MIC
  inhibition of S. aureus biofilm formation: 10.87%
S. aureus ATCC43300
  ROS fluorescence intensity vs PBS-treated group: about 8 fold
[2]; 8 μg/mL
  eradication of preformed S. aureus biofilm: about 19.83%
[2]; 1× MIC (2 μg/mL)
  eradication of preformed S. aureus biofilm: 11.65%
[3]
  MIC: 2 µg/mL (≈ 3.15 µM)

— publication PMC11350758, “Development of Xanthoangelol-Derived Compounds with Membrane-Disrupting Effects against Gram-Positive Bacteria” (Antibiotics, 2024)
